Legend:
[1] = system: Leptosphaeria nodorum; experiment: Glume Blotch of Wheat 1-day protectant test (LEPTNO); type: in vivo; settings: Parastagonospora nodorum, topical, 24 h; one-day protectant test, 200 ppm application rate, wheat plants (variety Yuma); read-out: LEPTINO control of disease
Experimental: The technical compounds were formulated at 200 ppm in 10 vol. acetone plus 90 vol. Triton X water (deionized water 99.99 wt. % +0.01 wt. Triton X100), giving a “formulated test compound.” The compounds were tested for ability to control plant diseases at the whole plant level in a 1-day protectant test (IDP). Formulated test compounds were applied to plants using a turn table sprayer fitted with two opposing air atomization nozzles which delivered approximately 1500 L/ha of spray volume. Plants were inoculated with spores of the fungus the next day, then incubated in an environment conducive to disease development. Disease severity was evaluated 4 to 19 days later, depending on the speed of disease development. Glume Blotch of Wheat (causal agent Leptosphaeria nodorum=Stagnospora nodorum; Bayer code […]): Wheat plants (variety Yuma) were grown from seed in a 50% pasteurized soil/50% soil-less mix until the seedlings had fully expanded first leaf. Each pot contains 3-20 seedlings. These plants were sprayed until wet with the formulated test compound at a rate of 200 ppm. On the following day, the leaves were inoculated with an aqueous spore suspension of Leptosphaeria nodorum and the plants were kept in high humidity (one day in a dark dew chamber followed by four to seven days in a lighted dew chamber) to permit spores to germinate and infect the leaf. The plants were then transferred to a greenhouse until disease developed on untreated control plants. The following table presents the activity of typical compounds of the present invention when evaluated in these experiments. The effectiveness of the test compounds in controlling disease was determined by assessing the severity of disease on treated plants, then converting the severity to percent control based on the level of disease on untreated, inoculated plants.

[2] = system: Puccinia triticina; experiment: Leaf Rust of Wheat 1-day protectant test (PUCCRT); type: in vivo; settings: topical, 24 h, one-day protectant test, 200 ppm application rate, wheat plants (variety Yuma), read-out: PUCCRT control of disease
Experimental: The technical compounds were formulated at 200 ppm in 10 vol. acetone plus 90 vol. Triton X water (deionized water 99.99 wt. % +0.01 wt. Triton X100), giving a “formulated test compound.” The compounds were tested for ability to control plant diseases at the whole plant level in a 1-day protectant test (IDP). Formulated test compounds were applied to plants using a turn table sprayer fitted with two opposing air atomization nozzles which delivered approximately 1500 L/ha of spray volume. Plants were inoculated with spores of the fungus the next day, then incubated in an environment conducive to disease development. Disease severity was evaluated 4 to 19 days later, depending on the speed of disease development. […] Each pot contained 3-8 seedlings. These plants were sprayed until wet with the formulated test compounds at a rate of 200 ppm. On the following day, the leaves were inoculated with an aqueous spore suspension of Puccinia triticina and the plants were kept in high humidity overnight to permit spores to germinate and infect the leaf. The plants were then transferred to a greenhouse until disease developed on untreated control plants. The following table presents the activity of typical compounds of the present invention when evaluated in these experiments. The effectiveness of the test compounds in controlling disease was determined by assessing the severity of disease on treated plants, then converting the severity to percent control based on the level of disease on untreated, inoculated plants.

[3] = system: Colletotricum lagenarium; experiment: Cucumber Anthracnose 1-day protectant test (COLLLA); type: in vivo; settings: Cucumis sativus, topical, 24 h; one-day protectant test, 200 ppm application rate, cucumber plants (variety Bush Champion); read-out: COLLLA control of disease
Experimental: The technical compounds were formulated at 200 ppm in 10 vol. acetone plus 90 vol. Triton X water (deionized water 99.99 wt. % +0.01 wt. Triton X100), giving a “formulated test compound.” The compounds were tested for ability to control plant diseases at the whole plant level in a 1-day protectant test (IDP). Formulated test compounds were applied to plants using a turn table sprayer fitted with two opposing air atomization nozzles which delivered approximately 1500 L/ha of spray volume. Plants were inoculated with spores of the fungus the next day, then incubated in an environment conducive to disease development. Disease severity was evaluated 4 to 19 days later, depending on the speed of disease development. Cucumber Anthracnose (causal agent Colletotricum lagenarium; Bayer code COLLLA): Cucumber plants (variety Bush Champion) were grown from seed in a soilless peat-based potting mixture (Metromix) until the first true leaf was 20-80% expanded. Each pot contained 1 seedling. These plants were sprayed until wet with the formulated test compound at a rate of 200 ppm. On the following day, the leaves were inoculated with an aqueous spore suspension of Colletotricum lagenarium and the plants were kept in high humidity for one day to permit spores to germinate and infect the leaf. The plants were then transferred to a growth chamber until disease developed on untreated control plants. The following table presents the activity of typical compounds of the present invention when evaluated in these experiments. The effectiveness of the test compounds in controlling disease was determined by assessing the severity of disease on treated plants, then converting the severity to percent control based on the level of disease on untreated, inoculated plants.

[4] = system: Cochliobolus sativus; experiment: Spot Blotch of Wheat 1-day protectant test (COCHSA); type: in vivo; settings: Bipolaris sorokiniana, 24 h; one-day protectant test, 200 ppm application rate, wheat plants (variety Yuma); read-out: COCHSA control of disease
Experimental: The technical compounds were formulated at 200 ppm in 10 vol. acetone plus 90 vol. Triton X water (deionized water 99.99 wt. % +0.01 wt. Triton X100), giving a “formulated test compound.” The compounds were tested for ability to control plant diseases at the whole plant level in a 1-day protectant test (IDP). Formulated test compounds were applied to plants using a turn table sprayer fitted with two opposing air atomization nozzles which delivered approximately 1500 L/ha of spray volume. Plants were inoculated with spores of the fungus the next day, then incubated in an environment conducive to disease development. Disease severity was evaluated 4 to 19 days later, depending on the speed of disease development. […] Each pot contained 3-8 seedlings. These plants were sprayed until wet with the formulated test compound at a rate of 200 ppm. On the following day, the leaves were inoculated with an aqueous spore suspension of Cochliobolus sativus and the plants were kept in high humidity for one to two days to permit spores to germinate and infect the leaf. The plants were then transferred to a greenhouse until disease developed on untreated control plants. The following table presents the activity of typical compounds of the present invention when evaluated in these experiments. The effectiveness of the test compounds in controlling disease was determined by assessing the severity of disease on treated plants, then converting the severity to percent control based on the level of disease on untreated, inoculated plants.

[5] = system: Septoria tritici; experiment: Speckled Leaf Blotch of Wheat 1-day protectant test (SEPTTR); type: in vivo; settings: Zymoseptoria tritici, topical, 24 h; one-day protectant test, 200 ppm application rate, wheat plants (variety Monon); read-out: SEPTTR control of disease
Experimental: The technical compounds were formulated at 200 ppm in 10 vol. acetone plus 90 vol. Triton X water (deionized water 99.99 wt. % +0.01 wt. Triton X100), giving a “formulated test compound.” The compounds were tested for ability to control plant diseases at the whole plant level in a 1-day protectant test (IDP). Formulated test compounds were applied to plants using a turn table sprayer fitted with two opposing air atomization nozzles which delivered approximately 1500 L/ha of spray volume. Plants were inoculated with spores of the fungus the next day, then incubated in an environment conducive to disease development. Disease severity was evaluated 4 to 19 days later, depending on the speed of disease development. Speckled Leaf Blotch of Wheat (Mycosphaerella graminicola=Septoria tritici; Bayer code […]): Wheat plants (variety Monon) were grown from seed in a greenhouse in 50% pasteurized soil/50% soil-less mix until the first true leaf was fully expanded, with 3-8 seedlings per pot. These plants were sprayed until wet with the formulated test compound at a rate of 200 ppm. On the following day, the leaves were inoculated with an aqueous spore suspension of Septoria tritici and the plants were kept in high humidity (one day in a dark dew chamber followed by four to seven days in a lighted dew chamber) to permit spores to germinate and infect the leaf. The plants were then transferred to a greenhouse until disease developed on untreated control plants. The following table presents the activity of typical compounds of the present invention when evaluated in these experiments. The effectiveness of the test compounds in controlling disease was determined by assessing the severity of disease on treated plants, then converting the severity to percent control based on the level of disease on untreated, inoculated plants.

[6] = system: Pyricularia oryzae; experiment: whole plant or invertebrate; type: in vivo; settings: topical, 24 h, read-out: PYRIOR control of disease

SMILES | pest or weed control at 200 ppm [1] [%] | pest or weed control at 200 ppm [2] [%] | pest or weed control at 200 ppm [3] [%] | melting point [°C] | pest or weed control at 200 ppm [4] [%] | pest or weed control at 200 ppm [5] [%] | pest or weed control at 200 ppm [6] [%]
COCC(C)Nc1cc(-c2ncnc(Nc3cccc(Cl)c3)n2)ccn1 (stereo not drawn) [Compound 1, N-(3-chlorophenyl)-4-{2-[(2-methoxy-1-methylethyl)amino]pyridin-4-yl}-1,3,5-triazin-2-amine] | 90 to 100 | 90 to 100 | 90 to 100 | 149 to 151 | 90 to 100 | 50 to 89 | 90 to 100
COC[C@H](C)Nc1cc(-c2ncnc(Nc3cccc(Cl)c3)n2)ccn1 [Compound 2, N-(3-chlorophenyl)-4-(2-{[(1S)-2-methoxy-1-methylethyl]amino}pyridin-4-yl)-1,3,5-triazin-2-amine] | 90 to 100 | 90 to 100 | 90 to 100 | 152 to 156 | 90 to 100 | 90 to 100 | 90 to 100
COCC(C)Nc1cc(-c2ncnc(Nc3ccccc3Cl)n2)ccn1 (stereo not drawn) [Compound 3, N-(2-chlorophenyl)-4-{2-[(2-methoxy-1-methylethyl)amino]pyridin-4-yl}-1,3,5-triazin-2-amine] | 21 to 49 | 50 to 89 | < 20 | 139 to 140 | 90 to 100 | 21 to 49 | 50 to 89
COCC(C)Nc1cc(-c2ncnc(Nc3ccc(Cl)cc3)n2)ccn1 (stereo not drawn) [Compound 4, N-(4-chlorophenyl)-4-{2-[(2-methoxy-1-methylethyl)amino]pyridin-4-yl}-1,3,5-triazin-2-amine] | 50 to 89 | 50 to 89 | < 20 | 198 to 200 | 50 to 89 | 50 to 89 | < 20
CC(C)(C)Nc1cc(-c2ncnc(Nc3cccc(Cl)c3)n2)ccn1 [Compound 5, 4-[2-(tert-butylamino)pyridin-4-yl]-N-(3-chlorophenyl)-1,3,5-triazin-2-amine] | 50 to 89 | 90 to 100 | 50 to 89 |  | 90 to 100 | 90 to 100 | 90 to 100
CC(COCc1ccccc1)Nc1cc(-c2ncnc(Nc3cccc(Cl)c3)n2)ccn1 (stereo not drawn) [Compound 6, N-(3-chlorophenyl)-4-{2-[(2-(benzyloxy)-1-methylethyl)amino]pyridin-4-yl}-1,3,5-triazin-2-amine] | 50 to 89 | 90 to 100 | < 20 | 79 to 80 | 50 to 89 | 90 to 100 | < 20
Clc1cccc(Nc2ncnc(-c3ccnc(N4CCCCC4)c3)n2)c1 [Compound 7, N-(3-chlorophenyl)-4-(2-piperidin-1-ylpyridin-4-yl)-1,3,5-triazin-2-amine] | 50 to 89 | 21 to 49 | < 20 | 168 to 169 | 21 to 49 | 50 to 89 | < 20
Clc1ccc(Nc2ncnc(-c3ccnc(N4CCCCC4)c3)n2)cc1 [Compound 8, N-(4-chlorophenyl)-4-(2-piperidin-1-ylpyridin-4-yl)-1,3,5-triazin-2-amine] | 50 to 89 | < 20 | < 20 |  | < 20 | 50 to 89 | < 20
CC1COC(=O)N1c1cc(-c2ncnc(Nc3cccc(Cl)c3)n2)ccn1 (stereo not drawn) [Compound 9] | 50 to 89 | 90 to 100 | 21 to 49 |  | 90 to 100 | 50 to 89 | 90 to 100
